The results in this text go back to patent US8895048B2, “Templated islet cells and small islet cell clusters for diabetes treatment” (The University of Kansas, priority 2010, dated 2014).

The assay has as its system beta cells. Briefly: Relative beta cell adhesion to biomaterial films in 96-well plates. The format is cell-based, rat. The settings on record: attached cells 24 hours after plating and three washes, normalized to empty well; triplicate. On the procedure:
In a typical experiment, 1% stock solutions of the listed biomaterials first were prepared. Most materials dissolved in deionized water at neutral pH. […] Polymers normally soluble in water (e.g. dextran sulfate, alginate, etc.) can be cross-linked to form the film matrix. Approximately 25 μL of each stock solution was added to three individual wells in 96-well plates and left to evaporate or vacuum dried, thus, depositing a thin biomaterial film at the bottom of each well. […] Several proteins offered commercially to promote cell adhesion on well plates (e.g. fibronectin, laminin, etc.) were prescreened for cell adhesion as well.
A dilute suspension of beta cells was incubated in the 96-well plates overnight and washed three times to remove unbound beta cells. The beta cell suspension was homogeneous and equal aliquots per well were assumed to contain a similar quantity of beta cells. […] In general, mildly hydrophobic polymers performed well for adhering beta cells (Table 1).
Cell adhesion was determined by counting the number of attached cells 24 hours after plating on the biomaterial and following three washes. The counts were normalized to the number of cells that attach to a well bottom lacking a biomaterial (see empty well, control) using the following calculation: number of cells attached in the well of interest/number of cells in empty well. Each experiment was repeated in triplicate.
As to Fibronectin, the Relative cell adhesion amounted to 3.7 ± 0.7. As to Gelatin, the Relative cell adhesion was found to be 2.0 ± 0.2. As for Laminin, the figure is 8.7 ± 0.6.
